Measurements from PubChem BioAssay AID463107 (The Scripps Research Institute Molecular Screening Center, 2010).
pEC50: −log10 of the molar value.

molecular target: Sphingosine 1-phosphate receptor 4 (Homo sapiens) (UniProt O95977); experiment: S1P4 receptor agonists, human, late-stage follow-up, cell-based, fluorescence, synthesized compounds (AID 463107); details: S1P4 cell-based agonist assay
Sequence (O95977 whole entry, looked up): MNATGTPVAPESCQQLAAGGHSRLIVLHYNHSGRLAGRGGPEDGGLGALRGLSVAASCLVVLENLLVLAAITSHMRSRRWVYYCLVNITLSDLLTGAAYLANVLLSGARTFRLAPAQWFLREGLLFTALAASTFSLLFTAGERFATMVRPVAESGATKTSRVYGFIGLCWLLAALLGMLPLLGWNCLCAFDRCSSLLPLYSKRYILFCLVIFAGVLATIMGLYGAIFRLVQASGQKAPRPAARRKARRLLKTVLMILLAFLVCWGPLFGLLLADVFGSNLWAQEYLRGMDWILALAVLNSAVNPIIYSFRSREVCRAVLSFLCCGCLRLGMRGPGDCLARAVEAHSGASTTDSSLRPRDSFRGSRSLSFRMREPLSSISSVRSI

pEC50, active:
Cc1ccc(OCCOc2c(Cl)cc(Cl)cc2Cl)c([N+](=O)[O-])n1 6.24
Cc1ccc(OCCOc2ccc(C)nc2[N+](=O)[O-])c(C)c1 5.14
FCc1ccc(OCCOc2ccc(Cl)cc2Cl)c(Cl)n1 7.34
Cc1ccc(OCCOc2ccc(Cl)cc2Cl)c(Br)n1 7.28
Clc1ccc(OCCOc2ccc(Br)nc2Br)c(Cl)c1 7.33
Cc1ccc(OCCOc2ccc(Cl)cc2Cl)c([N+](=O)[O-])n1 6.79
COc1ccc(OCCOc2ccc(C)nc2[N+](=O)[O-])c(Cl)c1 5.41
